Results reported in patent publication US20260325540A1 (priority 2023, published 2026).

Columns and labels:
MERS-CoV 3CLpro = MERS-CoV 3CLpro (Middle East respiratory syndrome-related coronavirus, UniProt K9N638); experiment: biochemical; conditions: MERS IC50, 75 nM MERS-CoV 3CLpro, 6 μM peptide 1 substrate, 25° C., 1.5 hrs, pH 7.5
SARS-CoV-2 3CLpro = SARS-CoV-2 3CLpro (Severe acute respiratory syndrome coronavirus 2, UniProt P0DTD1); experiment: FRET based protease assay, SARS-CoV-2 3CL; type: biochemical, SARS-CoV-2 (strain BetaCoV/Wuhan/WIV04/2019)

MERS-CoV 3CLpro, sequence (K9N638 3248-3553 limits assumed): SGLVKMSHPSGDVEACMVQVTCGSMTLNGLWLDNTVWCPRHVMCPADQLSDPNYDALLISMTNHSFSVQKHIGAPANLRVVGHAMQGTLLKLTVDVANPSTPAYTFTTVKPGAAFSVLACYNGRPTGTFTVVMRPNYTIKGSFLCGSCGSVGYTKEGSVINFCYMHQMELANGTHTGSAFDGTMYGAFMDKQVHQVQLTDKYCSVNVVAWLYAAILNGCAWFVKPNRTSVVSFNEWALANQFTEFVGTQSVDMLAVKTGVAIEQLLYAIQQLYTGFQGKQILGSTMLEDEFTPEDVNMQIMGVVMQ

| Compound | IC50 (MERS-CoV 3CLpro) [nM] | IC50 (SARS-CoV-2 3CLpro) [nM] |
| --- | --- | --- |
| CC(C)C[C@@H]1NC(=O)CCCCC[C@H]2CNC(=O)[C@H]2C[C@@H](C#N)NC1=O [Example 38] | > 20000 | 1000 to 20000 |
| N#C[C@@H]1C[C@@H]2C(=O)NC[C@@H]2/C=C/CC[C@H](NC(=O)C(F)(F)F)C(=O)N2C[C@@H]3CCC[C@@H]3[C@H]2C(=O)N1 [Example 101] | 100 to 1000 | < 100 |
| CC(C)(C)NC(=O)[C@@H]1CCCC[C@H]2CNC(=O)[C@H]2C[C@@H](C#N)NC(=O)[C@@H]2[C@@H]3[C@H](CN2C1=O)C3(C)C [Example 166] | > 20000 | 1000 to 20000 |
| CC1(C)[C@@H]2[C@H]3C(=O)N[C@H](C#N)C[C@@H]4C(=O)NC[C@@H]4CCCC[C@H](NC(=O)C4CCC(F)(F)CC4)C(=O)N3C[C@@H]21 [Example 68] | < 100 | < 100 |
| CC(C)(C)C(=O)N[C@H]1CCCC[C@H]2CCNC(=O)[C@H]2C[C@@H](C#N)NC(=O)[C@@H]2[C@@H]3[C@H](CN2C1=O)C3(C)C [Example 69] | 100 to 1000 | < 100 |
| N#C[C@@H]1C[C@@H]2C(=O)NC[C@@H]2CCCC[C@H](NC(=O)C2(C(F)(F)F)CC2)C(=O)N2CCC3(CC3)C[C@H]2C(=O)N1 [Example 151] | 100 to 1000 | < 100 |
| CC(C)C[C@@H]1NC(=O)[C@@H](Cc2ccccc2)CCCCC[C@@H]2CNC(=O)[C@@H]2C[C@@H](C#N)NC1=O [Example 49] | > 20000 | > 20000 |
| CC1(C)[C@@H]2[C@H]3C(=O)N[C@H](C#N)C[C@@H]4C(=O)NC[C@@H]4CCCC[C@H](N)C(=O)N3C[C@@H]21 [Example 161] | 1000 to 20000 | 100 to 1000 |
| CC1(C)[C@@H]2[C@H]3C(=O)N[C@H](C#N)C[C@@H]4C(=O)NC[C@@H]4CCCC[C@H](NC(=O)c4ccc(F)cc4C(F)(F)F)C(=O)N3C[C@@H]21 [Example 139] | < 100 | < 100 |
| CC1(C)[C@@H]2[C@H]3C(=O)N[C@H](C#N)C[C@@H]4C(=O)NC[C@@H]4CCCC[C@H](NC(=O)C4CCOCC4)C(=O)N3C[C@@H]21 [Example 85] | < 100 | < 100 |
| CC(C)(C)C(=O)N[C@H]1C/C=C\[C@H]2CNC(=O)[C@H]2C[C@@H](C#N)NC(=O)[C@@H]2[C@@H]3[C@H](CN2C1=O)C3(C)C [Example 64] | > 20000 | > 20000 |
| CC(C)(C)OC(=O)N[C@H]1CCCC[C@H]2CCNC(=O)C2C[C@@H](C#N)NC(=O)[C@@H]2[C@H]3CCC[C@H]3CN2C1=O (stereo partly drawn) [Example 98] | 100 to 1000 | 100 to 1000 |
| CC(C)C[C@@H]1NC(=O)[C@H](Cc2ccccc2)CCC[C@H]2CNC(=O)[C@H]2C[C@@H](C=O)NC1=O [Example 12] | 1000 to 20000 | 100 to 1000 |
| CC(C)(C)OC(=O)N[C@H]1CCCC[C@H]2CNC(=O)[C@H]2C[C@@H](C#N)NC(=O)[C@H](CC2CCCC2)NC1=O [Example 137] | 1000 to 20000 | < 100 |
| CC(C)C[C@H]1C(=O)N[C@H](C#N)C[C@@H]2C(=O)NC[C@@H]2CCCC[C@H](NC(=O)C(C)(C)C)C(=O)N1C [Example 57] | 1000 to 20000 | 100 to 1000 |
| CC(C)(C)OC(=O)N[C@H]1CCCC[C@H]2CNC(=O)[C@H]2C[C@@H](C#N)NC(=O)[C@@H]2[C@H]3CC[C@H](C3)N2C1=O [Example 127] | 1000 to 20000 | 1000 to 20000 |
| N#C[C@@H]1C[C@@H]2C(=O)NC[C@@H]2CCCC[C@H](Nc2nccc(C(F)(F)F)n2)C(=O)N2C[C@@H]3CCC[C@@H]3[C@H]2C(=O)N1 [Example 165] | 100 to 1000 | < 100 |
| CC(C)C[C@@H]1NC(=O)CCCCCC[C@H]2CNC(=O)[C@@H]2C[C@@H](C=O)NC1=O [Example 48] | 100 to 1000 | 100 to 1000 |
